One experiment deals with T1, human orexin-1 receptor (Homo sapiens, UniProt O43613).
T1 construct: expressed in transfected cells; host or cells: Chinese hamster ovary (CHO) cells, G418 selection
T1 sequence (O43613 1-425): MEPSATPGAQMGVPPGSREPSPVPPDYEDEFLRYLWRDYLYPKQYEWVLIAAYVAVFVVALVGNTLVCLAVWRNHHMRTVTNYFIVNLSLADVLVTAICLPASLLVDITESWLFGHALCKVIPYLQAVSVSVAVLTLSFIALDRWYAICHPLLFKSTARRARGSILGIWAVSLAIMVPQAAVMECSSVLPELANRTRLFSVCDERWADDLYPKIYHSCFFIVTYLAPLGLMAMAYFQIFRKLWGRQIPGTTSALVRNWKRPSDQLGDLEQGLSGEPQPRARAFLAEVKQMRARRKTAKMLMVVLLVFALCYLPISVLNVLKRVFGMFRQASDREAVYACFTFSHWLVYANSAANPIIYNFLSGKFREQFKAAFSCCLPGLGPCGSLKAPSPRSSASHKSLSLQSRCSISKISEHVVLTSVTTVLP
Kind of experiment: FLIPR calcium assay, antagonism of orexin-A in CHO cells expressing the human orexin-1 receptor. It is filed as cell-based. To be noted: read-out: OX1 IC50. As for the experimental part: (§1) Chinese hamster ovary (CHO) cells expressing the human orexin-1 receptor and the human orexin-2 receptor, respectively, are grown in culture medium (Ham F-12 with L-Glutamine) containing 300 μg/ml G418, 100 U/ml penicillin, 100 μg/ml streptomycin and 10% heat inactivated fetal calf serum (FCS). The cells are seeded at 20′000 cells/well into 384-well black clear bottom sterile plates (Greiner). The seeded plates are incubated overnight at 37° C. in 5% CO2. Human orexin-A as an agonist is prepared as 1 mM stock solution in MeOH:water (1:1), diluted in HBSS containing 0.1% bovine serum albumin (BSA), NaHCO3: 0.375 g/l and 20 mM HEPES for use in the assay at a final concentration of 3 nM. Antagonists are prepared as 10 mM stock solution in DMSO, then diluted in 384-well plates, first in DMSO, then in HBSS containing 0.1% bovine serum albumin (BSA), NaHCO3: 0.375 g/l and 20 mM HEPES. On the day of the assay, 50 μl of staining buffer (HBSS containing 1% FCS, 20 mM HEPES, NaHCO3: 0.375 g/l, 5 mM probenecid (Sigma) and 3 μM of the fluorescent calcium indicator fluo-4 AM (1 mM stock solution in DMSO, containing 10% pluronic) is added to each well. The 384-well cell-plates are incubated for 50 min at 37° C. in 5% CO2 followed by equilibration at rt for 30-120 min before measurement. Within the Fluorescent Imaging Plate Reader (FLIPR2 or FLIPR Tetra, Molecular Devices), antagonists are added to the plate in a volume of 10 μl/well, incubated for 10 min and finally 10 μl/well of agonist is added. Fluorescence is measured for each well at 1 second intervals, and the height of each fluorescence peak is compared to the height of the fluorescence peak induced by 3 nM orexin-A with vehicle in place of antagonist. For each antagonist, the IC50 value (the concentration of compound needed to inhibit 50% of the agonistic response) is determined. Optimized conditions may be achieved by adjustment of pipetting speed and cell splitting regime. The calculated IC50 values of the compounds may fluctuate depending on the daily cellular assay performance. Fluctuations of this kind are known to those skilled in the art.

The next experiment concerns the target T2, human orexin-2 receptor (Homo sapiens, UniProt O43614).
T2 construct: expressed in transfected cells; host or cells: Chinese hamster ovary (CHO) cells, G418 selection
T2 sequence (O43614 1-444): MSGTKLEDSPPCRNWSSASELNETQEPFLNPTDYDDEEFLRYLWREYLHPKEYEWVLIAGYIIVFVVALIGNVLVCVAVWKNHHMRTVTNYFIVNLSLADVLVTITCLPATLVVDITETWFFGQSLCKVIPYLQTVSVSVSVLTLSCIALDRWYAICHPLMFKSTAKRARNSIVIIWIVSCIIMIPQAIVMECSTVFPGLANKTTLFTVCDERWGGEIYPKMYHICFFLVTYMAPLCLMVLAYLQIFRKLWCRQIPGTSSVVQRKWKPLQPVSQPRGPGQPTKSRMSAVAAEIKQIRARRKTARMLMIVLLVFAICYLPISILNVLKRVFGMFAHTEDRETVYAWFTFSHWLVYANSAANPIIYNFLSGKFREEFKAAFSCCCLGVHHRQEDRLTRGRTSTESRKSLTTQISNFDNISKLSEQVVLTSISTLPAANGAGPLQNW
Kind of experiment: FLIPR calcium assay, antagonism of orexin-A in CHO cells expressing the human orexin-2 receptor. To be noted: read-out: OX2 IC50. It is filed as cell-based. The procedure: as §1

[1] abbreviates: measured with FLIPR Tetra (marked *), 3 nM orexin-A, CHO cells.
Setting [2] is: measured with FLIPR Tetra (marked *), geometric mean from n = 2 values.
Where [3] appears, read: measured with FLIPR 2, 3 nM orexin-A, CHO cells.

Like-named read-outs stand apart in the source and are kept apart here.

As for `Cc1nc2sccn2c1C(=O)NC[C@@H]1[C@H]2CC[C@H](C2)N1C(=O)c1ncsc1-c1ccc(F)cc1` [Example 35, 6-Methyl-imidazo[2,1-b]thiazole-5-carboxylic acid {(1R,3S,4S)-2-[5-(4-fluoro-phenyl)-thiazole-4-carbonyl]-2-aza-bicyclo[2.2.1]hept-3-ylmethyl}-amide], the 50% inhibitory concentration (IC50) on human orexin-1 receptor (setting [1]) turned out to be 0.278 µM; on human orexin-2 receptor (setting [1]), 0.808 µM.

As to `Cc1nc(C(=O)N2[C@@H]3CC[C@@H](C3)[C@H]2CNC(=O)c2cccc3ncsc23)c(-c2cccc(OC(F)(F)F)c2)o1` [Example 104, Benzothiazole-7-carboxylic acid {(1R,3S,4S)-2-[2-methyl-5-(3-trifluoromethoxy-phenyl)-oxazole-4-carbonyl]-2-aza-bicyclo[2.2.1]hept-3-ylmethyl}-amide], the IC50 on human orexin-1 receptor (setting [1]) worked out at 0.305 µM; at human orexin-2 receptor (setting [1]), 0.037 µM.

Consider `CCN(C)c1nc(C(=O)N2[C@H]3CC[C@H](C3)[C@@H]2CNC(=O)c2cccc3ncsc23)c(-c2ccc(F)cc2)s1` [Example 118, Benzothiazole-7-carboxylic acid {(1S,3R,4R)-2-[2-(ethyl-methyl-amino)-5-(4-fluoro-phenyl)-thiazole-4-carbonyl]-2-aza-bicyclo[2.2.1]hept-3-ylmethyl}-amide], for which the concentration for half-maximal inhibition (IC50) on human orexin-1 receptor (setting [1]) came to 0.117 µM; at human orexin-2 receptor (setting [1]), 0.032 µM.

In the case of `Cc1nc2c(C(=O)NC[C@@H]3[C@H]4CC[C@H](C4)N3C(=O)c3nc(N(C)C)sc3-c3cccc(F)c3)cccc2o1` [Example 79, 2-Methyl-benzooxazole-4-carboxylic acid {(1R,3S,4S)-2-[2-dimethylamino-5-(3-fluoro-phenyl)-thiazole-4-carbonyl]-2-aza-bicyclo[2.2.1]hept-3-ylmethyl}-amide], the IC50 at human orexin-1 receptor (setting [2]) was determined as 0.064 µM; on human orexin-2 receptor (setting [2]), 0.071 µM.

For `O=C(NC[C@@H]1[C@H]2CC[C@H](C2)N1C(=O)c1sccc1-c1ccc2c(c1)OCO2)c1cccc2ncsc12` [Example 94, Benzothiazole-7-carboxylic acid [(1R,3S,4S)-2-(3-benzo[1,3]dioxol-5-yl-thiophene-2-carbonyl)-2-aza-bicyclo[2.2.1]hept-3-ylmethyl]-amide], the 50% inhibitory concentration (IC50) came to 1.27 µM on human orexin-1 receptor (setting [1]) and 0.081 µM at human orexin-2 receptor (setting [1]).

`COc1cccc(-c2sc(N(C)C)nc2C(=O)N2[C@@H]3CC[C@@H](C3)[C@H]2CNC(=O)c2cccc3ncsc23)c1` [Example 97, Benzothiazole-7-carboxylic acid {(1R,3S,45)-2-[2-dimethylamino-5-(3-methoxy-phenyl)-thiazole-4-carbonyl]-2-aza-bicyclo[2.2.1]hept-3-ylmethyl}-amide]: the 50% inhibitory concentration (IC50) amounted to 0.012 µM at human orexin-1 receptor (setting [2]) and 0.014 µM at human orexin-2 receptor (setting [2]).

Turning to `Cc1nc(C(=O)N2[C@@H]3CC[C@@H](C3)[C@H]2CNC(=O)c2cccc3cccnc23)c(-c2cccc(Cl)c2)s1` [Example 1, Quinoline-8-carboxylic acid {(1R,3S,4S)-2-[5-(3-chloro-phenyl)-2-methyl-thiazole-4-carbonyl]-2-aza-bicyclo[2.2.1]hept-3-ylmethyl}-amide], the half-maximal inhibitory concentration (IC50) at human orexin-1 receptor (setting [3]) was found to be 0.059 µM; at human orexin-2 receptor (setting [3]), 0.622 µM.

Consider `Nc1nc(C(=O)N2[C@@H]3CC[C@@H](C3)[C@H]2CNC(=O)c2cccc3c2OCCO3)c(-c2cccc(F)c2)s1` [Example 5, 2,3-Dihydro-benzo[1,4]dioxine-5-carboxylic acid {(1R,3S,4S)-2-[2-amino-5-(3-fluoro-phenyl)-thiazole-4-carbonyl]-2-aza-bicyclo[2.2.1]hept-3-ylmethyl}-amide], for which the half-maximal inhibitory concentration (IC50) was 0.149 µM at human orexin-1 receptor (setting [3]) and 0.029 µM at human orexin-2 receptor (setting [3]).

Turning to `CCn1nc(C)cc1C(=O)NC[C@@H]1[C@H]2CC[C@H](C2)N1C(=O)c1ccccc1-c1ccccc1` [Example 40, 2-Ethyl-5-methyl-2H-pyrazole-3-carboxylic acid [(1R,3S,4S)-2-(biphenyl-2-carbonyl)-2-aza-bicyclo[2.2.1]hept-3-ylmethyl]-amide], the IC50 at human orexin-1 receptor (setting [3]) was more than 10 µM; on human orexin-2 receptor (setting [3]), 0.441 µM.

Consider `CN(C)c1nc(C(=O)N2[C@@H]3CC[C@@H](C3)[C@H]2CNC(=O)c2nsc3ccccc23)c(-c2cccc(F)c2)s1` [Example 105, Benzo[d]isothiazole-3-carboxylic acid {(1R,3S,4S)-2-[2-dimethylamino-5-(3-fluoro-phenyl)-thiazole-4-carbonyl]-2-aza-bicyclo[2.2.1]hept-3-ylmethyl}-amide], for which the figures for the IC50 on human orexin-1 receptor (setting [1]) and on human orexin-2 receptor (setting [1]) were 0.065 µM and 0.421 µM, respectively.

In the case of `Cc1nc2sccn2c1C(=O)NC[C@@H]1[C@H]2CC[C@H](C2)N1C(=O)c1nc(C2CC2)sc1-c1ccccc1` [Example 31, 6-Methyl-imidazo[2,1-b]thiazole-5-carboxylic acid [(1R,3S,4S)-2-(2-cyclopropyl-5-phenyl-thiazole-4-carbonyl)-2-aza-bicyclo[2.2.1]hept-3-ylmethyl]-amide], the IC50 at human orexin-1 receptor (setting [1]) was found to be 0.138 µM; at human orexin-2 receptor (setting [1]), 0.055 µM.

Regarding `COc1nc(C(=O)N2[C@@H]3CC[C@@H](C3)[C@H]2CNC(=O)c2cccc3ncsc23)c(-c2cccc(Cl)c2)s1` [Example 80, Benzothiazole-7-carboxylic acid {(R,S,S)-2-[5-(3-chloro-phenyl)-2-methoxy-thiazole-4-carbonyl]-2-aza-bicyclo[2.2.1]hept-3-ylmethyl}-amide], the results for the half-inhibitory concentration (IC50) at human orexin-1 receptor (setting [1]) and on human orexin-2 receptor (setting [1]) were 0.08 µM and 0.015 µM, respectively.

Take `O=C(NC[C@H]1[C@@H]2CC[C@@H](C2)N1C(=O)c1nc(N2CCCC2)sc1-c1ccccc1F)c1cccc2ncsc12` [Example 110, Benzothiazole-7-carboxylic acid {(1S,3R,4R)-2-[5-(2-fluoro-phenyl)-2-pyrrolidin-1-yl-thiazole-4-carbonyl]-2-aza-bicyclo[2.2.1]hept-3-ylmethyl}-amide]: the half-maximal inhibitory concentration (IC50) at human orexin-1 receptor (setting [1]) came out at 0.023 µM; at human orexin-2 receptor (setting [1]), 0.03 µM.

For the compound `Cc1nc(C(=O)N2[C@@H]3CC[C@@H](C3)[C@H]2CNc2ncc(Br)cn2)c(-c2ccccc2)s1` [Example 46, {(1R,3S,4S)-3-[(5-Bromo-pyrimidin-2-ylamino)-methyl]-2-aza-bicyclo[2.2.1]hept-2-yl}-(2-methyl-5-phenyl-thiazol-4-yl)-methanone], the IC50 was determined as 0.488 µM on human orexin-1 receptor (setting [1]) and 0.364 µM at human orexin-2 receptor (setting [1]).

`CN(C)c1nc(C(=O)N2[C@@H]3CC[C@@H](C3)[C@H]2CNC(=O)c2nn(C)c3ccccc23)c(-c2ccccc2)s1` [Example 63, 1-Methyl-1H-indazole-3-carboxylic acid [(1R,3S,4S)-2-(2-dimethylamino-5-phenyl-thiazole-4-carbonyl)-2-aza-bicyclo[2.2.1]hept-3-ylmethyl]-amide]: the IC50 on human orexin-1 receptor (setting [1]) was 0.307 µM; at human orexin-2 receptor (setting [1]), 0.061 µM.

For `Cc1ncc(C(=O)N2[C@@H]3CC[C@@H](C3)[C@H]2CNC(=O)c2cccc3occc23)c(-c2ccccc2)n1` [Example 11, Benzofuran-4-carboxylic acid [(1R,3S,4S)-2-(2-methyl-4-phenyl-pyrimidine-5-carbonyl)-2-aza-bicyclo[2.2.1]hept-3-ylmethyl]-amide], the half-inhibitory concentration (IC50) is 0.075 µM on human orexin-1 receptor (setting [3]) and 2.14 µM on human orexin-2 receptor (setting [3]).

Usually IC50 stands for the concentration at which inhibition is half-maximal.

The values are drawn from US8236801B2, “2-aza-bicyclo[2.2.1]heptane derivatives” (Actelion Pharmaceuticals Ltd., priority 2008, dated 2012).
